Results: patent publication US6472391B2, “Nitrogen-containing heterocyclic compounds” (Millennium Pharmaceuticals, Inc., priority 1996, dated 2002)

melting point	Compound
198 to 200 °C	COc1cc2ncnc(N3CCN(C(=S)Nc4ccc(Cc5ccncc5)cc4)CC3)c2cc1OC [Compound 282, 4-(6,7-Dimethoxy-4-quinazolinyl)-N-[4-(4-picolyl)phenyl]-1-piperazinethiocarboxamide]
254 to 256 °C	COc1cc2ncnc(N3CCN(C(=O)Nc4ccc(N5CCOCC5)cc4)CC3)c2cc1OC [Compound 117, 4-(6,7-Dimethoxy-4-quinazolinyl)-N-(4-morpholinophenyl)-1-piperazinecarboxamide]
217 to 218 °C	COc1cc2ncnc(N3CCN(C(=S)NCc4ccc(Br)cc4)CC3)c2cc1OC [Compound 185, N-(4-Bromobenzyl)-4-(6,7-dimethoxy-4-quinazolinyl)-1-piperazinethiocarboxamide]
206 to 207 °C	O=C(Nc1ccc(Oc2ccccc2)cc1)N1CCN(c2ncnc3cc4c(cc23)OCO4)CC1 [Compound 367, 4-(6,7-Methylenedioxy-4-quinazolinyl)-N-(4-phenoxyphenyl)-1-piperazinecarboxamide]
236 to 238 °C	O=C(Nc1ccc([N+](=O)[O-])cc1)N1CCN(c2nc(-c3ccccc3)nc3ccccc23)CC1 [Compound 110, 4-(2-Phenyl-4-quinazolinyl)-N-(4-nitrophenyl)-1-piperazinecarboxamide]
187 to 189 °C	COc1cc2ncnc(N3CCN(C(=S)NCc4ccccc4)CC3)c2cc1OC [Compound 125, N-Benzyl-4-(6,7-dimethoxy-4-quinazolinyl)-1-piperazinethiocarboxamide]
214 to 216 °C	COc1cc2ncnc(N3CCN(C(=S)Nc4ccc(SC)cc4)CC3)c2cc1OC [Compound 218, 4-(6,7-Dimethoxy-4-quinazolinyl)-N-(4-methylthiophenyl)-1-piperazinethiocarboxamide]
266 to 269 °C	COc1cc2ncnc(N3CCN(C(=O)Nc4ccc(S(C)(=O)=O)cc4)CC3)c2cc1OC [Compound 251, 4-(6,7-Dimethoxy-4-quinazolinyl)-N-(4-mesylphenyl)-1-piperazinecarboxamide]
224 to 226 °C	COc1cc2ncnc(N3CCN(C(=O)Nc4ccc(-n5cccc5)cc4)CC3)c2cc1OC [Compound 280, 4-(6,7-Dimethoxy-4-quinazolinyl)-N-[4-(1-pyrrolyl)phenyl]-1-piperazinecarboxamide]
135 to 136 °C	COc1cc2ncnc(N3CCN(C(=O)NCc4ccc(C(C)C)cc4)CC3)c2cc1OC [Compound 153, 4-(6,7-Dimethoxy-4-quinazolinyl)-N-(4-isopropylbenzyl)-1-piperazinecarboxamide]
144 to 146 °C	COc1cc2ncnc(N3CCN(C(=O)Nc4ccc(C(=O)C(F)(F)F)cc4)CC3)c2cc1OC [Compound 243, 4-(6,7-Dimethoxy-4-quinazolinyl)-N-(4-trifluoroacetylphenyl)-1-piperazinecarboxamide]
128 to 131 °C	COc1cc2ncnc(N3CCN(C(=S)Nc4ccc(SC(F)(F)F)cc4)CC3)c2cc1OC [Compound 220, 4-(6,7-Dimethoxy-4-quinazolinyl)-N-(4-trifluoromethylthiophenyl)-1-piperazinethiocarboxamide]
196 to 197 °C	O=C(Nc1ccc(Oc2ccccc2)cc1)N1CCN(c2nnc(Cl)c3ccccc23)CC1 [Compound 416, 4-(4-Chloro-1-phthalazinyl)-N-(4-Phenoxyphenyl)-1-piperazinecarboxamide]
169 to 170 °C	O=C(Nc1ccc(Oc2ccccc2)cc1)N1CCN(c2ncnc3ccc(Br)cc23)CC1 [Compound 303, 4-(6-Bromo-4-quinazolinyl)-N-(4-phenoxyphenyl)-1-piperazinecarboxamide]
108 to 111 °C	COc1cc2ncnc(N3CCN(C(=S)NCC4(c5ccc(Cl)cc5)CC4)CC3)c2cc1OC [Compound 446, N-[1-(4-Chlorophenyl)cyclopropylmethyl]-4-(6,7-dimethoxy-4-quinazolinyl)-1-piperazinethiocarboxamide]
170 to 171 °C	O=C(Nc1ccc(Oc2ccccc2)cc1)N1CCN(c2ncnc3ccc([N+](=O)[O-])cc23)CC1 [Compound 311, 4-(6-Nitro-4-quinazolinyl)-N-(4-phenoxyphenyl)-1-piperazinecarboxamide]
165 to 167 °C	COc1cc2nncc(N3CCN(C(=O)Nc4ccc(Oc5ccccc5)cc4)CC3)c2cc1OC [Compound 426, 4-(6,7-Dimethoxy-4-cinnolinyl)-N-(4-phenoxyphenyl)-1-piperazinecarboxamide]
141 to 143 °C	COc1cc2ncnc(N3CCN(C(=O)Nc4ccncc4)CC3)c2cc1OC [Compound 267, 4-(6,7-Dimethoxy-4-quinazolinyl)-N-(4-pyridyl)-1-piperazinecarboxamide]
204 to 205 °C	COc1cc2ncnc(N3CCN(C(=S)Nc4ccc(C)cc4)CC3)c2cc1OC [Compound 146, 4-(6,7-Dimethoxy-4-quinazolinyl)-N-(4-tolyl)-1-piperazinethiocarboxamide]
134 to 136 °C	CCOc1cc2ncnc(N3CCN(C(=S)NCc4ccccc4)CC3)c2cc1OCC [Compound 353, N-Benzyl-4-(6,7-diethoxy-4-quinazolinyl)-1-piperazinethiocarboxamide]

melting point	Compound
163 to 164 °C	O=C(Nc1ccc(Oc2ccccc2)cc1)N1CCN(c2ccnc3cc(C(F)(F)F)ccc23)CC1 [Compound 404, N-(4-Phenoxyphenyl)-4-(7-trifluoromethyl-4-quinolyl)-1-piperazinecarboxamide]
174 to 175 °C	COc1cc2ncnc(N3CCN(C(=O)Nc4ccc(F)cc4F)CC3)c2cc1OC [Compound 50, N-(2,4-Difluorophenyl)-4-(6,7-dimethoxy-4-quinazolinyl)-1-piperazinecarboxamide]
171 to 172 °C	COc1cc2ncnc(N3CCN(C(=S)Nc4cccc(C(F)(F)F)c4)CC3)c2cc1OC [Compound 163, 4-(6,7-Dimethoxy-4-quinazolinyl)-N-(3-trifluoromethylphenyl)-1-piperazinethiocarboxamide]
238 to 240 °C	COc1cc2ncnc(N3CCN(C(=O)Nc4ccc(Cl)nc4)CC3)c2cc1OC [Compound 272, N-(2-Chloro-5-pyridyl)-4-(6,7-dimethoxy-4-quinazolinyl)-1-piperazinecarboxamide]
177 to 178 °C	O=C(Nc1ccc(Oc2ccccc2)cc1)N1CCN(c2ncnc3cc(F)c(F)cc23)CC1 [Compound 329, 4-(6,7-Difluoro-4-quinazolinyl)-N-(4-phenoxyphenyl)-1-piperazinecarboxamide]
227 to 228 °C	O=C(Nc1ccc(Oc2ccccc2)cc1)N1CCN(c2ncnc3cc4c(cc23)OCCO4)CC1 [Compound 372, 4-(6,7-Ethylenedioxy-4-quinazolinyl)-N-(4-phenoxyphenyl)-1-piperazinecarboxamide]
170 to 171 °C	COc1cc2ncnc(N3CCN(C(=S)Nc4ccc(Br)cc4)CC3)c2cc1OC [Compound 182, N-(4-Bromophenyl)-4-(6,7-dimethoxy-4-quinazolinyl)-1-piperazinethiocarboxamide]
170 to 172 °C	Fc1ccc2ncnc(N3CCN(C(=S)NCc4cccnc4)CC3)c2c1 [Compound 299, 4-(6-Fluoro-4-quinazolinyl)-N-(3-picolyl)-1-piperazinethiocarboxamide]
216 to 217 °C	COc1cc2ncnc(N3CCN(C(=S)NCc4ccc(C(F)(F)F)cc4)CC3)c2cc1OC [Compound 161, 4-(6,7-Dimethoxy-4-quinazolinyl)-N-(4-trifluoromethylbenzyl)-1-piperazinethiocarboxamide]
214 to 216 °C	C=Cc1ccc(NC(=O)N2CCN(c3ncnc4cc(OC)c(OC)cc34)CC2)cc1 [Compound 164, 4-(6,7-Dimethoxy-4-quinazolinyl)-N-(4-vinylphenyl)-1-piperazinecarboxamide]
92 to 94 °C	CCOC(=O)c1cnc2cc(OC)c(OC)cc2c1N1CCN(C(=S)NCc2cccnc2)CC1 [Compound 410, 4-(6,7-Dimethoxy-3-ethoxycarbonyl-4-quinolyl)-N-(3-picolyl)-1-piperazinethiocarboxamide]
200 to 201 °C	COc1cc2ncnc(N3CCN(C(=O)Nc4ccc(F)c(Cl)c4)CC3)c2cc1OC [Compound 193, N-(3-Chloro-4-fluorophenyl)-4-(6,7-dimethoxy-4-quinazolinyl)-1-piperazinecarboxamide]
146 to 147 °C	COc1cc2nc(C)nc(N3CCN(C(=O)Nc4ccc(Oc5ccccc5)cc4)CC3)c2cc1OC [Compound 391, 4-(6,7-Dimethoxy-2-methyl-4-quinazolinyl)-N-(4-phenoxyphenyl)-1-piperazinecarboxamide]
181 to 190 °C	COc1cc2nncc(N3CCN(C(=S)NCc4cccnc4)CC3)c2cc1OC [Compound 427, 4-(6,7-Dimethoxy-4-cinnolinyl)-N-(3-picolyl)-1-piperazinethiocarboxamide]
170 to 173 °C	Cl.Cl.S=C(NCc1cccnc1)N1CCN(c2ccnc3cc(Cl)ccc23)CC1
183 to 185 °C	Cl.Cl.S=C(NCc1cccnc1)N1CCN(c2ccnc3ccccc23)CC1
76 to 80 °C	COc1cc2ncnc(N3CCN(C(=S)NCc4ccccc4)CC3)c2cc1OS(C)(=O)=O [Compound 351, N-Benzyl-4-(6-mesyloxy-7-methoxy-4-quinazolinyl)-1-piperazinethiocarboxamide]
93 to 96 °C	COc1cc2ncnc(N3CCCN(C(=O)Nc4ccc(Oc5ccccc5)cc4)CC3)c2cc1OC [Compound 435, 4-(6,7-Dimethoxy-4-quinazolinyl)-N-(4-phenoxyphenyl)-1-homopiperazinecarboxamide]
158 to 160 °C	C#CCNC(=S)N1CCN(c2ncnc3cc(OC)c(OC)cc23)CC1 [Compound 16, 4-(6,7-Dimethoxy-4-quinazolinyl)-N-(2-propynyl)-1-piperazinethiocarboxamide]

Compound	melting point
COc1cc2ncnc(N3CCN(C(=O)Nc4ccc(OC(C)=O)cc4)CC3)c2cc1OC [Compound 216, N-(4-Acetoxyphenyl)-4-(6,7-dimethoxy-4-quinazolinyl)-1-piperazinecarboxamide]	197 to 199 °C
